Assay results reported in patent US20240085425A1, “BIOMARKER AND APPLICATION THEREOF” (ADLAI NORTYE BIOPHARMA CO., LTD., priority 2022, published 2024).
pIC50: −log10 of the molar value.

Key:
Format in all cases: cell-based
[1] = test system: 22Rv1; assay: Tumor cell proliferation inhibition (Promega cell viability, 72 h); conditions: Homo sapiens, 22Rv1 cells, read-out: Anti-proliferation IC50
Procedure: (§1) The cell lines used in the experiment are various tumor cells, including DU4475, Colo205, HepG2, PLC/PRF/5, BT-20, LS174T, NCI-H929, HCT116, SW620, SK-CO-1, SW480, DLD1, HT-29, SW900, SW1417, HuH7, H2009, PANC-1, SW48, Duadi, H358, HCT15, 22Rv1, Hela, RKO, Raji, Jurkat, NCI-H716, MDA-MB-231, NCI-H157 and THP1, and the inhibitory effect of the compound of the present disclosure on the proliferation of these tumor cells is determined, in order to screen out sensitive cell types of the compound of the present disclosure.
(§2) DU4475, Colo205, HepG2, PLC/PRF/5, BT-20, LS174T, NCI-H929, HCT116, SW620, SK-CO-1, SW480, DLD1, HT-29, SW900, SW1417, HuH7, H2009, PANC-1, SW48, Duadi, H358, HCT15, 22Rv1, Hela, RKO, Raji, Jurkat, NCI-H716, MDA-MB-231, NCI-H157 and THP1 cell lines cultured in each medium were treated during the logarithmic growth phase, and the cells were collected and prepared into a uniform cell suspension of known concentration, and then added to the 96-well cell culture plate to make each well contain 1000 cells. Put it into a 5% CO2 incubator and incubate at 37° C. for 20-24 h. The next day, the fully dissolved 3-fold gradient diluted compound was added to each cell culture well, so that the final maximum concentration in the cell culture well was 20 μM, and the culture was continued for 72 hours. In this test, Promega's cell viability detection test is used for detection. The more the cells proliferate, the stronger the final signal intensity will be. The detection instrument is SpectraMax, full wavelength mode. The wells with only DMSO added were used as positive control wells, and the wells without cells inoculated were used as negative control wells. The IC50 value of each compound for different cell proliferation inhibition was calculated to evaluate the inhibitory effect of the compound on different tumor cells.

[2] = test system: HCT116; assay: as above; conditions: Homo sapiens, HCT-116, HCT116 cells, read-out: Anti-proliferation IC50
Procedure: as §1, §2

[3] = test system: Hela; assay: as above; conditions: Homo sapiens, Hela cells, read-out: Anti-proliferation IC50
Procedure: as §1, §2

[4] = test system: HepG2; assay: as above; conditions: Homo sapiens, HepG2 cells, read-out: Anti-proliferation IC50
Procedure: as §1, §2

[5] = test system: HuH7; assay: as above; conditions: Homo sapiens, Huh-7, HuH7 cells, read-out: Anti-proliferation IC50
Procedure: as §1, §2

[6] = test system: Jurkat; assay: as above; conditions: Homo sapiens, Jurkat cells, read-out: Anti-proliferation IC50
Procedure: as §1, §2

[7] = test system: NCI-H157; assay: as above; conditions: Homo sapiens, NCI-H157 cells, read-out: Anti-proliferation IC50
Procedure: as §1, §2

[8] = test system: NCI-H929; assay: as above; conditions: Homo sapiens, NCI-H929 cells, read-out: Anti-proliferation IC50
Procedure: as §1, §2

[9] = test system: PLC/PRF/5; assay: as above; conditions: Homo sapiens, PLC/PRF/5 cells, read-out: Anti-proliferation IC50
Procedure: as §1, §2

[10] = test system: Raji; assay: as above; conditions: Homo sapiens, Raji cells, read-out: Anti-proliferation IC50
Procedure: as §1, §2

[11] = test system: SW1417; assay: as above; conditions: Homo sapiens, SW1417 cells, read-out: Anti-proliferation IC50
Procedure: as §1, §2

[12] = test system: non-phosphorylated β-catenin; assay: Western blot of non-phosphorylated β-catenin content in Colo205 cells; conditions: for Effect on content of non-phosphorylated β-catenin (active β-catenin), in words: FIG. 1; for pIC50: overnight, Western blot, read-out: Non-phosphorylated β-catenin content inhibition IC50
Source text: (§3) The Wnt signaling pathway is a key pathway for abnormal tumor growth. In colon cancer, liver cancer, pancreatic cancer and other cancers, a large number of patients have abnormal activation of the Wnt signaling pathway. The Wnt signaling pathway depends on the fine balance of β-catenin protein level. When Wnt signaling is not activated, β-catenin is phosphorylated by CK1 and APC/Axin/GSK-3β complexes, and the β-catenin protein is kept at a low level through ubiquitin-dependent proteasome degradation. When the Wnt signaling pathway is activated, β-catenin maintains a stable state of non-phosphorylation, and non-phosphorylated β-catenin can be transported into the nucleus through Rac1 and other factors, and plays a transcriptional regulatory role by binding to LEF/TCF transcription factors in the nucleus, activates downstream target genes such as C-myc and Cyclin D1, and promotes cell proliferation. Therefore, abnormal activation of the Wnt signaling pathway in tumor cells will lead to abnormal proliferation of tumors. In order to explore the inhibitory mechanism of the compound on the proliferation of tumor cell lines, the compound AN10250399, AN10250421 or AN10250484 was used to treat sensitive cells Colo205, DU4475 and HepG2, and Western blot was used to detect the content of non-phosphorylated β-catenin in the Wnt pathway to clarify the effect of the compound on content of the non-phosphorylated β-catenin.
Add 500 μL of the compound with the highest concentration shown in FIG. 1 to each well of the 6-well cell culture plate, and make a 10-fold gradient dilution of the compound concentration. Then 500 μL of 10^6 Colo205, DU4475 and HepG2 or 500 μL of medium were inoculated into each well, and corresponding solvent treatment was performed simultaneously as negative control wells. The cells were placed in a 5% CO2 cell incubator, cultured overnight at 37° C. The culture medium was removed, washed once with PBS, 200 μL of RIPA buffer containing protease inhibitors was added to each well, and the protein lysate was collected after lysing on ice for 20 min. Add an appropriate amount of concentrated SDS-PAGE protein loading buffer to the collected protein lysate samples, and heat at 100° C. or in a boiling water bath for 3-5 minutes to fully denature the protein. Load the protein sample directly to the SDS-PAGE gel for electrophoresis separation, transfer the protein on the SDS-PAGE gel to the PVDF membrane; after the transfer was completed, the protein was blocked by Western blocking solution, then Rabbit anti-β-catenin non-phospho S37/After T41 (ab278503) was added and the protein was incubated at room temperature for one hour and washed, the content of non-phosphorylated β-catenin was detected by incubation with Goat Anti-Rabbit IgG H&L (HRP) (ab6721). As a control, glyceraldehyde-3-phosphate dehydrogenase (GAPDH) was used as an internal standard protein

[13] = test system: non-phosphorylated β-catenin; assay: Western blot of non-phosphorylated β-catenin content in HepG2 cells; conditions: overnight, read-out: Non-phosphorylated β-catenin content inhibition IC50
Source text: as §3, with “In order to explore the inhibitory mechanism of the compound on the proliferation of tumor cell lines, the compound AN10250399, AN10250421 or AN10250484 was used to treat sensitive cells Colo205, DU4475 and HepG2, and Western blot was used to detect the content of non-phosphorylated β-catenin in the Wnt pathway to clarify the effect of the compound on content of the non-phosphorylated β-catenin.” left out
Add 500 μL of the compound with the highest concentration shown in FIG. 1 to each well of the 6-well cell culture plate, and make a 10-fold gradient dilution of the compound concentration. […] Load the protein sample directly to the SDS-PAGE gel for electrophoresis separation, transfer the protein on the SDS-PAGE gel to the PVDF membrane; after the transfer was completed, the protein was blocked by Western blocking solution, then Rabbit anti-β-catenin non-phospho S37/After T41 (ab278503) was added and the protein was incubated at room temperature for one hour and washed, the content of non-phosphorylated β-catenin was detected by incubation with Goat Anti-Rabbit IgG H&L (HRP) (ab6721). […]

Row | pIC50 [1] | pIC50 [2] | pIC50 [3] | pIC50 [4] | pIC50 [5] | pIC50 [6] | pIC50 [7] | pIC50 [8] | pIC50 [9] | pIC50 [10] | pIC50 [11] | pIC50 [12] | pIC50 [13] | SMILES | Effect on content of non-phosphorylated β-catenin (active β-catenin), in words [12]
1 | < 5.00 | 6.85 | < 5.00 | 7.96 | 7.21 | < 5.00 | < 5.00 | 6.89 | 7.74 | < 5.00 | 7.48 | 8.00 | 8.23 | Cc1nc(C(F)(F)F)ncc1Oc1ccc(CNc2nc(C)c3c(n2)N(C)[C@@H](C)C(=O)N3)cn1 [AN10250484] | decrease the content of non-phosphorylated β-catenin
2 | < 5.00 | 6.62 | < 5.00 | 6.89 | 6.98 | < 5.00 | < 5.00 | 6.40 | 7.20 | < 5.00 | 6.77 | 7.66 | 8.40 | [2H]C([2H])([2H])N1c2nc(NCc3ccc(Oc4cnc(C(F)(F)F)nc4)nc3)nc3c2N(CCC3)C(=O)[C@]1(C)CO [AN10250399] | decrease the content of non-phosphorylated β-catenin
